# Source: patent US5770595A, “Oxime substituted therapeutic compounds” (Cell Therapeutics, Inc., priority 1994, dated 1998)
# How the values were obtained:
# [1] = U.S. Pat. Nos. 4,515,795 and 4,576,947; cited from earlier work
# [2] = system: polymorphonuclear leukocytes; conditions: in response to a stimulator of chemotaxis; U.S. Pat. No. 4,636,507; cited from earlier work
# [3] = system: PBMC (peripheral blood mononuclear cells); assay: two-way mixed lymphocyte reaction; assay type: cell-based, human; conditions: Example 28; protocol similar to Example 10
# Excerpt: Various in vitro assays can be used to measure effects of the inventive compounds to module immune activity and have antitumor activity using a variety of cellular types. For example, a mixed lymphocyte reaction (MLR) provides a valuable screening tool to determine biological activity of each inventive compound. In the MLR, PBMCs (peripheral blood mononuclear cells) are obtained by drawing whole blood from healthy volunteers in a heparinized container and diluted with an equal volume of hanks balanced salt solution (HBSS). This mixture is layered on a sucrose density gradient, such as a Ficoll-Hypaque® gradient (specific gravity 1.08), and centrifuged at 1000×g for 25 minutes at room temperature or cooler. PBMC are obtained from a band at a plasma-Ficoll interface, separated and washed at least twice in a saline solution, such as HBSS. Contaminating red cells are lysed, such as by ACK lysis for 10 min at 37° C., and the PBMCs are washed twice in HBSS. The pellet of purified PBMCs is resuspended in complete medium, such as RPMI 1640 plus 20% human inactivated serum. Proliferative response of PBMC to allogeneic stimulation is determined in a two-way MLR performed in a 96-well microtiter plate. Briefly, approximately 10^5 test purified PBMC cells in 200 μl complete medium are co-cultured with approximately 10^5 autologous (control culture) or allogeneic (stimulated culture) PBMC cells, wherein the allogeneic cells are from HLA disparate individuals. Varying doses of compounds (drug) are added at the time of addition of cells to the microtiter plate. The cultures are incubated for 6 days at 37° C. in a 5% CO2 atmosphere. At the conclusion of the incubation tritiated thymidine is added (for example, 1 μCi/well of 40 to 60 Ci/mmole) and proliferation determined by liquid scintillation. counting.
# Example 10 illustrates a mixed lymphocyte reaction of inventive compounds nos. 1521 and 1522 (see above for chemical name and structure). […] Both compounds nos. […]
# murine thymocyte = assay: thymocyte proliferation stimulated by ConA and IL-2; assay type: cell-based, murine (female Balb/C mice); conditions: ConA, IL-2 15 U/ml; FIG. 18 (IC50 curve)
# Method: A thymocyte costimulator assay is conducted to evaluate the inventive compounds to inhibit activation and proliferation of thymocytes caused by stimulation with Con A and interleukin-1 (IL-1), or […]. Thymuses are obtained from mice (e.g., female Balb/C mice) and the thymuses are removed and dissociated into culture media (e.g., RPMI 1640 without serum supplementation). The dissociated thymus tissue and cell suspension is transferred to centrifuge tubes and allowed to settle, washed with HBSS and resuspended in serum-supplemented culture media (e.g., RPMI 1640 with 10% fetal calf serum). Any contaminating red cells are lysed, and viable cells are resuspended and counted. Thymocytes are plated (e.g., 96-well plates at a density of 2×10^5 cells/well) and a stimulating agent, such as Con A, IL-1 (e.g., IL-1α) or IL-2 is added to the well. The cells are incubated for 4 days at 37° C. On the fourth day, the cells are pulsed with tritiated thymidine and cell proliferation determined. […]
# 1522 on inhibition of thymocyte proliferation stimulated by ConA and interleukin-2 (IL-2) (20 ng/ml). Compound no. […]
# Thymuses, obtained from normal, female Balb/C mice, were dissociated and plated into 96-well plates at a density of 2×10^5 cells/well. […] The amount of tritiated thymidine dye incorporated by the harvested cells was determined in a liquid scintillation counter. […]
# [4] = system: THP-1 cells / IL-1β-activated HUVEC; assay: THP-1 cell adhesion to IL-1β-activated HUVEC; assay type: cell-based, human; conditions: IL-1β 10 ng/ml, 8 hours; between 1.0 and 10 μM
# Method: This example illustrates inhibitive activity of inventive compound no. 2525 on THP-1 cell adhesion to IL-1β-activated HUVEC. In an investigative assay, HUVEC were stimulated with IL-1β (10 ng/ml), both in the absence and presence of varying concentrations of inventive compound for 8 hours in a 96-well microtiter plate. In the wellplate, human monocytic leukemia cell line THP-1 cells were added at 50,000 cells per well. The THP-1 cells were pre-incubated with BCECF, a fluorescence dye that can be use to measure cell number using a fluorescence plate reader. After 10 minutes at 37° C., the microtiter plate was inverted and spun at 900 rpm. The remaining adhering THP-1 cells were then analyzed. […] The inventive compound no.
# VCAM in HUVEC cells = assay: cell surface expression of VCAM in HUVEC; assay type: cell-based, human; conditions: protocol similar to Example 20; FIG. 17
# Method: Drug inhibitory activity can also be measured by determining levels of vascular cell adhesion molecule (VCAM) in stimulated cells. Early passage human umbilical vein endothelial cells (HUVEC) (obtained from commercial suppliers such as Cell Systems, Inc. or Clonetics) are cultured in media (e.g., Hepes buffered media, Cell Systems) containing 10% fetal bovine serum, and supplemented with a stimulating agent, such as fibroblast growth factor (acidic FGF, Cell Systems, Inc.) or TNF. The cells are plated into wells of a microtiter plate (e.g., 5×10^4 per well) and allowed to incubate at 37° C. for 72 hrs. The resting cells are removed (e.g., 20-30 min treatment with 0.4% EDTA), washed in media (e.g., phosphate buffered saline plus 0.1% bovine serum albumin with 0.01% sodium azide) and labeled on ice with a monoclonal antibody ("first antibody") recognizing human VCAM (e.g., 1 μg of a murine monoclonal antibody recognizing human VCAM, Genzyme). After 60 min on ice, the cells are washed (preferably twice) with cold wash media and incubated with an antibody that recognizes the first antibody (e.g., 1 μg of goat anti-mouse IgG conjugated with phycoerythrin, CalTag, Inc.). After 30 min on ice, the cells are washed twice and analyzed on a flow cytometer (Coulter Elite®) at appropriate emission and excitation wavelengths (e.g., for phycoerytlrin use excitation at 488 nm and emission at 525 nm).
# The cells were stimulated with human TNF-α (20 ng/ml) for 20 hours and then stained for immunofluorescence using a monoclonal antibody recognizing VCAM, followed by a goat anti-mouse antibody conjugated to phycoerythrin. The cells were analyzed for antibody binding using flow cytometry. […] 1521 and 1522 at the indicated drug concentrations.
# This example was used to investigate inhibition of vascular cell adhesion molecule (VCAM) expression on HUVEC by inventive compound no. 2525. VCAM expression by endothelial cells is an early event in atherogenesis and multiple sclerosis, among other various autoimmune diseases. FIG. 17, a plot of percent surface expression versus concentration of compound no.
# [5] = system: THP-1 cells / TNFα-activated HUVEC; assay: THP-1 cell adhesion to TNFα-activated HUVEC; assay type: cell-based, human; conditions: 0.1 to 10 μM
# Excerpt: This example illustrates inhibitive activity of inventive compound no. 2525 on THP-1 cell adhesion to TNFα-activated HUVEC. In an investigative assay, representative of the protocol employed in Example 23, HUVEC were stimulated with TNF α instead of IL-1β. As shown by results reported in FIG. 15, non-stimulated background adherence was approximately 1000 relative units, increasing to approximately 3000 under TNF stimulation.
# ICAM in HUVEC cells = assay: cell surface expression of ICAM in HUVEC; assay type: cell-based; conditions: human TNF-α 20 ng/ml, 20 hours
# Method: 2525 to inhibit cell surface expression of ICAM in HUVEC cells. The cells were stimulated with human TNF-α (20 ng/ml) for 20 hours and then stained for immunofluorescence using a monoclonal antibody recognizing ICAM, followed by a goat anti-mouse antibody conjugated to phycoerythrin. The cells were analyzed for antibody binding using flow cytometry. FIG. 16 reports % surface expression, determined by analysis of mean fluorescence intensity of cells analyzed by flow cytometry, for compound no. 2525, at concentration shown. As reported, compound no.
smiles,measurement,setting,value
"CC(O)CCCCn1c(=O)c2c(ncn2C)n(C)c1=O (centres unmarked) [M1, 1-(5-hydroxyhexyl)-3,7-dimethylxanthine]",cerebral blood flow,[1],increasing cerebral blood flow
same,stimulation of chemotaxis in polymorphonuclear leukocytes,[2],stimulate chemotaxis in polymorphonuclear leukocytes
CC(CCCCCCCCCn1c(=O)c2c(ncn2C)n(C)c1=O)=NO [compound 2514],proliferative response of lymphocytes in mixed lymphocyte reaction,[3],showed activity in this immune modulating activity assay procedure
same,"inhibition of thymocyte proliferation, ConA + IL-2",murine thymocyte,inhibit thymocyte proliferation and activation
CC(CCCCCCCCCCn1c(=O)c2c(ncn2C)n(C)c1=O)=NO [compound 2525],inhibition of THP-1 adhesion to IL-1β-activated HUVEC,[4],significantly inhibited THP-1 adhesion
same,inhibition of VCAM surface expression,VCAM in HUVEC cells,able to inhibit surface expression of VCAM
same,inhibition of THP-1 adhesion to TNFα-activated HUVEC,[5],significantly inhibited THP-1 adhesion
same,inhibition of ICAM surface expression,ICAM in HUVEC cells,inhibited ICAM surface expression
